Results from the SangsterLogP compilation.

Assays:
[1] = method code SF-AS, from DOI: 10.1002/jps.2600611027, PMID: 5072421
[2] = method code SF-AS, from DOI: 10.1021/acs.inorgchem.5b01238, PMID: 26280387
[3] = method code SF-HPLC, from DOI: 10.1007/s00216-006-0868-5, PMID: 17082876
[4] = method code SF-HPLC, from Peips, M.; Sikk, P.; Aaviksaar, A. (1986). Hydrophobic interaction in the active sites of serine proteases from thermoactinomycetes. Org. React., 23(3)261-271.; details: pH 2.2
[5] = method code SF-AS, from DOI: 10.1016/s0021-9673(01)91572-9, PMID: 2376602; details: pH 7.0
[6] = method code SF, from DOI: 10.1016/0223-5234(94)90060-4; details: pH 7.4
[7] = method code SF-HPLC, from DOI: 10.1248/cpb.41.694
[8] = not given; remark: listed apart in the source
[9] = method code SF-AS, from DOI: 10.1016/0006-2952(93)90433-w, PMID: 8494536; details: pH 7.4
[10] = method code SF, from DOI: 10.1016/s0378-5173(98)00231-2
[11] = method code SF-GLC, from DOI: 10.1016/j.chemosphere.2004.08.061, PMID: 15519382
[12] = method code SF-AS, from DOI: 10.1021/es00012a023, PMID: 22148214
[13] = method code SF, from DOI: 10.1016/0048-3575(88)90017-x
[14] = method code SF-AS, from DOI: 10.1021/jf60220a002
[15] = method code SF-AS, from DOI: 10.1021/jm00297a026, PMID: 5441130
[16] = method code SF, from DOI: 10.1080/09553008714551831, PMID: 3497891; details: pH 7.4
[17] = not given; remark: listed apart in the source
[18] = not given; remark: listed apart in the source
[19] = method code SF-AS, from DOI: 10.1016/0006-2952(80)90068-4, PMID: 6775639
[20] = method code SF-AS, from DOI: 10.1021/jm00075a005, PMID: 8246220; details: pH 7.4
[21] = method code SF-HPLC, from DOI: 10.1016/0378-5173(87)90096-2; details: pH 8.0
[22] = not given; remark: listed apart in the source
[23] = method code SF, from DOI: 10.3109/00498258709043934, PMID: 3564538
[24] = method code SF-HPLC, from DOI: 10.1023/a:1015862319927, PMID: 2062808; details: pH 7.4
[25] = not given; remark: listed apart in the source
[26] = method code SF-NMR, from DOI: 10.1021/jm00157a023, PMID: 3806574
[27] = method code SF-HPLC, from DOI: 10.1016/0378-5173(86)90071-2; details: pH 7.4
[28] = method code SF-CR+DM, from DOI: 10.1021/ja01573a017; details: pH 6.5

Work on `CCCCCCc1ccncc1` yielded a logP [1] of 4.35.

For `CCSC(=S)C=C(O)c1cccc(O)c1`, the logP [2] was 1.73.

In the case of `CC(=O)CC(=O)Nc1ccccc1`, the logP [3] was 1.04.

In the case of `COC(=O)[C@H](Cc1ccccc1)NC(C)=O`, the logD [4] was 0.92.

For `Nc1ncnc2c1ncn2C1C=C(CO)C(O)C1O` (stereo not given), the logD [5] was -1.3.

Work on `Cc1cn([C@H]2C[C@H](O)[C@@H](CO)O2)c(=O)[nH]c1=O` yielded a logP of -1.04.

For `CC(C=CC1=C(C)CCCC1(C)C)=CC=CC(C)=CC(=O)Nc1ccn(C2CSC(CO)O2)c(=O)n1` (stereo not given), the logD [6] was 1.23.

`CN(C)C(=O)OCc1cccc([N+](=O)[O-])c1` gave a logP [7] of 1.98.

In the case of `CCCCCCC1(c2ccncc2)CCC(=O)NC1=O` (stereo not given), the logP [8] was 2.85.

For `Cc1ccc2cc3ccccc3cc2c1`, the logD [9] was 5.

`OCCCCCc1ccccc1` showed a logP [10] of 2.89.

In the case of `Cn1c(Br)c(Br)c(Br)c1-c1c(Br)c(Br)c(Br)n1C`, the logP [11] was 6.7.

With `CC(C)OC(=O)CS(=O)c1ccc(Cl)cc1[N+](=O)[O-]` (stereo not given) the logP [12] was 2.22.

`OCCCc1ccccc1` gave a logP [10] of 1.83.

Compound `CC(=O)OCN1C(=O)C(C)=C(C)C1=O` has a logP [13] of 0.65.

For `CCNP(=O)(OCC)ON=C(C#N)c1ccc([N+](=O)[O-])cc1` (stereo not given), the logP [14] was 1.76.

For `Cn1c(Cl)c(Cl)c(Br)c1-c1c(Br)c(Br)c(Cl)n1C`, the logP [11] was 6.5.

With `CCCCCn1cnc2c(N)ncnc21` the logP [15] was 1.79.

With `CSc1ccc(COC(=O)N(C)C)cc1` the logP [7] was 2.86.

Compound `CSC(=S)C=C(O)c1ccc(O)cc1` has a logP [2] of 1.9.

`CC(OCC=CCO)N1C=CNC1[N+](=O)[O-]` (stereo not given) showed a logD [16] of -0.28.

`CC1(c2ccncc2)CCC(=O)NC1=O` (stereo not given) gave a logP [8] of 0.07.

With `CN(C)C(=O)OCc1ccc(C(N)=O)cc1` the logP [7] was 0.77.

In the case of `COCCc1ccc(OCC(O)CNC(C)C)cc1` (stereo not given), the logP [17] was 1.65.

With `CC(C)C(C(=O)O)c1ccc(OC(F)F)cc1` (stereo not given) the logP [18] was 3.03.

Work on `CC(C)OC(=O)CSc1ccccc1[N+](=O)[O-]` yielded a logP [12] of 2.76.

`Nc1ccn([C@@H]2C=C(CO)[C@@H](O)[C@H]2O)c(=O)n1` showed a logD [5] of -2.3.

`COC(=O)C(=Cc1cnc(S(C)=O)n1C)C(=O)OC` (stereo not given) gave a logD [16] of -0.43.

With `CC1=C(C)C(=O)C(C)=C(C)C1=O` the logP [19] was 2.12.

In the case of `CON1C(=O)CC2(CCCC2)C1=O`, the logD [20] was 1.15.

With `O=C1CC2(CCCC2)C(=O)N1OCc1ccccc1` the logD [20] was 2.3.

`NC(=O)CCCCc1ccccn1` showed a logD [21] of 0.4.

Compound `CC(=O)C=Cc1ccccc1` has a logP [17] of 2.13.

Work on `CCCCCc1ccncc1` yielded a logP [1] of 3.75.

With `CSC(=S)C=C(O)c1cccc(O)c1` the logP [2] was 1.71.

Work on `Nc1nc(=O)n([C@H]2CC[C@@H](CO)O2)cc1F` yielded a logD [5] of -1.05.

With `CCOP(=O)(NC)O/N=C(/C#N)c1ccc(Cl)cc1` (stereo not given) the logP [14] was 2.5.

With `CCc1ccc2ccccc2c1` the logP [22] was 4.38.

`CC1=CC(=O)C(C)=C(C)C1=O` showed a logP [19] of 1.47.

`CC(C)OC(=O)C(C(=O)OC(C)C)=C1SC=CS1` showed a logP [23] of 3.75.

In the case of `CC(C=CC1=C(C)CCCC1(C)C)=CC=CC(C)=CC(=O)OCC1OC(n2ccc(N)nc2=O)CS1` (stereo not given), the logD [6] was 1.24.

`N=C(Nc1ccccc1)Nc1ccccc1` showed a logP [3] of 2.85.

`Cc1cc2ccccc2cc1C` gave a logP [22] of 4.4.

Work on `Cc1cn(C2CC(N=[N+]=[N-])C(COC(=O)C(=O)NC(Cc3ccccc3)C(=O)O)O2)c(=O)[nH]c1=O` (stereo not given) yielded a logP of 1.2.

With `CCC(=O)OCC1OC(n2cc(I)c(=O)[nH]c2=O)CC1O` (stereo not given) the logD [24] was 0.68.

In the case of `CCCOC(=O)C(C(=O)OCCC)=C1SC=CS1`, the logP [23] was 3.93.

`CCC(O)Cn1cnc2c(N)ncnc21` (stereo not given) gave a logP [15] of 0.14.

Work on `COC(=O)C(=Cc1cnc(S(C)(=O)=O)n1C)C(=O)OC` yielded a logD [16] of 0.49.

For `CS(=O)(=O)c1cccc2ccccc12`, the logD [9] was 1.74.

`O=C1C(c2[nH]c3ccc(S(=O)(=O)O)cc3c2O)=Nc2ccc(S(=O)(=O)O)cc21` gave a logP [19] of -2.

Compound `CCCCC(CO)n1cnc2c(N)ncnc21` (stereo not given) has a logP [15] of 1.16.

Work on `CC(=O)OCN1Cc2ccccc2C1=O` yielded a logP [13] of 0.99.

`CCCNCc1ccc(C)cc1` gave a logP [25] of 2.96.

Compound `CCOCCOCCOP(=O)(N1CC1(C)C)N1CC1(C)C` (stereo not given) has a logP [26] of 0.22.

`CCOCCOCCOP(=O)(N1CC1)N1CC1` showed a logP [26] of 0.1.

Work on `CCNP(=O)(OCC)O/N=C(/C#N)c1ccc(OC)cc1` (stereo not given) yielded a logP [14] of 2.39.

With `Cn1c(Cl)c(Br)c(Br)c1-c1c(Br)c(Br)c(Br)n1C` the logP [11] was 6.6.

`CCC(C)C(NC(=O)C(=O)OCC1OC(n2cc(C)c(=O)[nH]c2=O)CC1N=[N+]=[N-])C(=O)O` (stereo not given) gave a logP of 1.15.

`O=P(N1CCOCCOCCOCCOCC1)(N1CC1)N1CC1` showed a logP [26] of 0.12.

Work on `CCOC(=O)C(C(=O)CC)=C1SC=CS1` yielded a logP [23] of 2.9.

With `CC(=O)OCOc1ccccc1C(N)=O` the logD [27] was 0.52.

In the case of `CCCCCCCCC1(c2ccncc2)CCC(=O)NC1=O` (stereo not given), the logP [8] was 4.04.

`CNCc1ccc(C)cc1` showed a logP [25] of 1.96.

In the case of `CS(=O)CCCOc1ccc2ccccc2c1` (stereo not given), the logD [9] was 2.42.

In the case of `CC(=O)OCN1C(=O)c2ccccc2C1=O`, the logP [13] was 1.15.

Compound `O=C1CC2(CCCC2)C(=O)N1OCc1ccc(Cl)cc1` has a logD [20] of 2.53.

Compound `CCCCC(NC(C)=O)C(=O)OC` (racemic) has a logD [4] of 0.79.

With `Cc1ccc(NC(=O)c2ccccc2)c(O)c1` the logD [28] was 3.08.

Work on `CC(C)OC(=O)CS(=O)c1ccc([N+](=O)[O-])cc1` (stereo not given) yielded a logP [12] of 1.64.

`O=C(OC[C@H]1O[C@@H](n2cc(I)c(=O)[nH]c2=O)C[C@@H]1O)c1ccccc1` gave a logD [24] of 1.4.

`NC(=O)CCCc1cccnc1` showed a logD [21] of 0.07.

`CCCCCNCc1ccc(C)cc1` showed a logP [25] of 4.26.

`O=c1[nH]c(=O)n([C@H]2C[C@H](O)[C@@H](CO)O2)cc1I` gave a logD [24] of -0.95.

In the case of `OCCCCCCc1ccccc1`, the logP [10] was 3.29.

Work on `CC(=O)OCC1OC(n2ccc(N)nc2=O)CS1` (stereo not given) yielded a logD [6] of 0.51.

In the case of `O=S1(=O)OC(c2cc(Br)c(O)c(Br)c2)(c2cc(Br)c(O)c(Br)c2)c2ccccc21`, the logP [3] was 4.88.

Work on `NC(=O)CCCc1ccncc1` yielded a logD [21] of 0.06.

With `Cc1ccc(NC(=O)c2ccco2)c(O)c1` the logD [28] was 2.84.

`CCCC(=O)OCOc1ccccc1C(N)=O` gave a logD [27] of 1.66.

`Cc1cccc2ccccc12` gave a logP [22] of 3.87.

In the case of `Oc1ccc(Cl)c2ccccc12`, the logD [28] was 4.1.

In the case of `CC(C)(C)C(=O)OCOc1ccccc1C(N)=O`, the logD [27] was 2.

For `CCCCCC(NC(C)=O)C(=O)OC` (stereo not given), the logD [4] was 1.28.

Compound `CC(C)(C)NCC(O)COc1cccc2c1C[C@H](O)[C@H](O)C2` (stereo not given in full) has a logP [17] of 1.27.

For `CCCCCCCc1ccncc1`, the logP [1] was 5.
